# Measurements as given in publication PMC5225183, “Fingerprinting of neurotoxic compounds using a mouse embryonic stem cell dual luminescence reporter assay” (Archives of Toxicology, 2016).
# Read-outs that look alike come from different tables or passages of the source. Marks after values point to notes of the source that are not given here.
# How the values were obtained:
# EF1α promoter = settings: for LOAEL ESC EF1α: undifferentiated ESCs
# Outline: (§1)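 Mouse CGR8 ESCs carrying Tα1-firefly and EF1α-Renilla luciferase reporters, treated either undifferentiated (48 h exposure after 24 h plating) or as MS5-induced neurons (exposure day 6 to day 8). Dual-luciferase luminescence expressed as % promoter activity versus DMSO control wells; 5 µM methylmercury as positive control.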
# [1] = system: Tubulin α1 (Tα1) promoter; settings: undifferentiated ESCs, 48 h exposure; lowest tested concentration with statistically significant decrease
# Outline: as §1
# [2] = system: Tubulin α1 (Tα1) promoter; experiment: cells; settings: for LOAEL Neurons Tα1: ESC-derived neurons, 48 h exposure
# Outline: as §1
# [3] = cited from earlier work
# [4] = system: undifferentiated pluripotent stem cells (ESCs); experiment: Dual luminescence reporter test system, undifferentiated ESCs (readout not separated); assay type: cell-based, mouse
# Text: (§2) Fig. 1 Synopsis of experimental protocols. The impact of compounds on neural promoter activity (FLuc, Firefly Luciferase under the control of the Tα1 promoter), general promoter activity (RLuc, Renilla Luciferase under the control of the EF1α promoter), and amount of DNA (PI, propidium iodide fluorescence in cell homogenates) was investigated in undifferentiated mouse embryonic pluripotent stem cells (ESCs) and on ESC-derived neurons. Arrows indicate the time of measurement of the three parameters. a Protocol for testing compounds effects on ESCs. CGR8-2Luc cells were plated on gelatin-coated 96-well plates in maintenance medium (BHK21 medium containing 10 % FCS, L-glutamine, NEAA, P/S, and LIF). Twenty-four hours later, cells were exposed to compounds for forty-eight hours. b Protocol for testing compounds on ESC-derived neurons. CGR8-2Luc cells were co-cultured with MS5 cells to induce neural differentiation in DMEM medium containing 15 % KO-serum, NEAA, β-mercaptoethanol, and P/S. On day 5, cells were detached and seeded on polyornithine-coated plates in DMEM medium containing N2 supplement, bFGF, and P/S; compound exposure was from day 6 to day 8
# (§3) To test compounds on ESC-derived neurons, neuronal differentiation was carried out as previously described (Suter et al. [2009]; Xu et al. [2014]). Briefly, CGR8-2Luc cells were seeded on irradiated bone marrow-derived stromal MS5 cells and cultivated for 4 days in DMEM medium containing 15 % Knock-out™ Serum Replacement, non-essential amino acids, beta-mercaptoethanol, and penicillin/streptomycin. At day 5, cells were then re-plated (3 × 10^5 cells/cm^2) on polyornithine-coated 96-well plates in N2 medium containing DMEM, N2 supplement, penicillin/streptomycin, and 10 ng/ml basic human fibroblast growth factor (bFGF) (Invitrogen). […] To assess toxicity of compounds on undifferentiated pluripotent stem cells (ESCs), CGR8-2Luc cells were plated at 45,000 cells/cm^2 on 0.1 % gelatin-coated dishes in BHK21 medium, supplemented with 10 % fetal calf serum, L-glutamine, non-essential amino acids, penicillin/streptomycin, and leukemia inhibitory factor (LIF). After 24 h, compounds were added and incubated for 48 h, before luciferase expression and PI fluorescence were analyzed. In all experiments, methylmercury was used as a positive control at a concentration of 5 µM.
# (§4) Luciferase activities were measured with a Dual-Luciferase™ Reporter system kit. CGR8-2Luc ES cells were lysed in 96-well plates according to the manufacturer’s instructions. Luminescence measurements were performed on a Fluostar Optima reader. Luminescence counts were expressed as percentage of promoter activity normalized by comparison with the control wells treated by DMSO. […] parameters were measured in homogenates of ESCs and in ESC-derived neurons: (1) FLuc, reflecting the activity of early neural promoter Tα1. FLuc increases during neuronal differentiation. Many neurotoxic compounds may affect FLuc expression, either through impact on neuronal differentiation, through changes of neuronal gene expression, or through killing of neurons.
# After measurement of luciferase activity, DNA quantity was determined by PI assay, as previously described (Xu et al. [2014]). PI was added to cell homogenates after the luciferase test, at a final concentration of 50 µg/ml and incubated for 2 h. After incubation, fluorescence intensity was measured on a Flexstation 3 microplate reader (Excitation: 544 nm ± 15 nm; Emission: 620 nm ± 15 nm). Results are expressed as percentage of control. Propidium iodide (PI) measures total DNA content as an approximation of the cell number.
# ESC-derived neurons = system: ESC-derived neurons
# Text: as §2, §3, §4
# After measurement of luciferase activity, DNA quantity was determined by PI assay, as previously described (Xu et al. [2014]). […] After incubation, fluorescence intensity was measured on a Flexstation 3 microplate reader (Excitation: 544 nm ± 15 nm; Emission: 620 nm ± 15 nm). Results are expressed as percentage of control. […]
# plasma protein = settings: cited from earlier work
# [5] = ESC-derived neurons, 48 h exposure
# [6] = in vitro toxicity data expressed as EC20
SMILES,LOAEL Neurons EF1α (EF1α promoter; [5]) [µM],LOAEL ESC EF1α (EF1α promoter; 48 h exposure) [µM],LOAEL ESC Tα1 [1] [µM],LOAEL Neurons Tα1 [2] [µM],Concentration in humans ([3]; ref Zimmer et al. ([2014])),other results
Cc1[nH]c2ccccc2c1CCNCc1ccc(/C=C/C(=O)NO)cc1 [Panobinostat],50,0.05,0.05,0.0005,–,effect on neural promoter activity in neurons [2]: inhibited at subnanomolar concentrations; Concentration in humans ([3]; ref Bauer et al. ([2014])): 0.036–0.045^h µM
COc1cc2ncnc(Nc3ccc(F)c(Cl)c3)c2cc1OCCCN1CCOCC1 [Gefitinib],50,50,50,50,1.2^k µM,–
Brc1ccc(Oc2cc(Br)c(Br)cc2Br)c(Br)c1 [PBDE-99],5,>50,50,>50,–,"Concentration in humans (human exposure concentration) ([3]; human exposure concentration, ref Zimmer et al. ([2014])): 97*10^−6k (human exposure concentration) µM; Human exposure concentrations ([3]; ref Zimmer et al. ([2014])): 5 to 100 pM"
CCCC(CCC)C(=O)O [Valproic acid],5000,5000,5000,50,–,Concentration in humans ([3]; ref Krug et al. ([2013b])): 500–1000^e µM; effect on promoter activities in undifferentiated cells ([4]; non-cytotoxic concentrations): enhanced the activities of neuronal and/or general promoters
[CH3][Hg][Cl] [Methylmercury],5,0.5,0.5,0.05,–,"Concentration in humans ([3]; ref Krug et al. ([2013b])): 0.005–0.5^e µM; Concentration in humans ([3]; ref Krug et al. ([2013b]), listed as methylmercury): 0.005 to 0.5 µM"
O=c1[nH]c(=O)c2[nH]c(=O)[nH]c2[nH]1 [Uric acid],–,>50,>50,>50,–,"LOAEL Neurons EF1α (EF1α promoter; mouse, 48 h): >50 µM"
[Br][Hg][Br] [Mercury bromide],>10,5,5,10,–,concentration up to which neurons were not affected (ESC-derived neurons): 5000 nM
C[C@]12CC[C@H](O)CC1=CC[C@@H]1[C@@H]2CC[C@]2(C)C(c3cccnc3)=CC[C@@H]12 [Abiraterone],2,>2,>2,1,0.65^k µM,"concentration affecting neural differentiation (decrease of neuronal and general promoter activities) (ESC-derived neurons; ESC-derived neurons, no change in cell number): higher than 0.5 µM; In vitro EC20 in ESC-derived neurons (ESC-derived neurons; [6]): 700 nM; fb,pl (plasma bound fraction) (plasma protein; fraction, extracted from the literature (geldanamycin value assumed)): 0.998; percentage of plasma protein binding (plasma protein; without relevant species differences, ref US FDA [2011]): 99.8%; In vitro EC20 in ESC [4, 6]: 2000 nM"
O=C(NC[C@H]1CN(c2ccc(N3CCOCC3=O)cc2)C(=O)O1)c1ccc(Cl)s1 [Rivaroxaban],>10,>10,>10,>10,0.69^k µM,–
